# Data published in patent US20180311342A1, “IMMUNOSTIMULATING AGENT” (AJINOMOTO CO., INC., priority 2017, published 2018).
# Experiments:
# [1] = tested on: anti-OVA-specific IgG1 and IgG2a subclass antibody / anti-OVA-specific IgE antibody; assay: Effective Index: index for adjuvant enhancing antibody production and not inducing allergy (IgG1 or IgG2a / IgE, relative to Addavax = 1.0); assay type: in vivo, BALB/c mice
# Description: The serum samples obtained in Experimental Example 1 were evaluated for utilizability as an adjuvant to cause enhancement of antibody production by each compound and not induce allergy based on the following index (Effective Index). Whether each compound can be used as an adjuvant to cause enhancement of antibody production and not induce allergy was also evaluated in the same manner in the following Experimental Examples 2-10.
# It is a problem that Addavax™ potentiates antigen-specific antibody production but induces allergy. Therefore, the index for adjuvant not inducing allergy (Effective Index) was defined as follows, and an index of each administration group in Experimental Examples 1-10 was calculated. That is, a value obtained by dividing mean of the concentrations of anti-OVA-specific IgG1 subclass antibody and anti-OVA-specific IgG2a subclass antibody of each group by mean of anti-OVA-specific IgE antibody concentration of each group was relatively compared with a value obtained by dividing mean of the concentrations of anti-OVA-specific IgG1 subclass antibody and anti-OVA-specific IgG2a subclass antibody of Addavax™ administration group by mean of anti-OVA-specific IgE antibody concentration of Addavax™ administration group as 1.0.
# [2] = tested on: anti-OVA-specific IgE antibody; assay: Allergy inducing activity test: anti-OVA-specific IgE antibody in serum of OVA-immunized mice (DS mouse IgE ELISA (OVA) kit); assay type: in vivo, BALB/c mice; conditions: for anti-OVA-specific IgE antibody production: Experimental Example 4: after secondary immunization, compound 0.256 μmol dissolved in saline (no αCD)
# [3] = after secondary immunization, compound in 5% αCD-added saline, IgG1/IgE and IgG2a/IgE production amounts relative to Addavax administration group (1.0)
smiles,measurement,setting,value
"CCCCCCCCCCCCCCCC(=O)N[C@@H](CCCNC(=N)N)C(=O)NCCCCCCCCCCCC.Cl [SZ111, N-[(1S)-1-(dodecylcarbamoyl)-4-guanidino-butyl]hexadecanamide hydrochloride]",Effective Index,"[1]; Experimental Example 4: after secondary immunization, compound dissolved in saline, IgG1/IgE and IgG2a/IgE relative to Addavax administration group (1.0)",> 1.0
same,Effective Index,[1]; [3],> 1.0
same,anti-OVA-specific IgE antibody production,[2]; compared to Addavax administration group,lower
same,anti-OVA-specific IgE antibody production,[2]; compared to OVA single administration group,significantly increased
same,allergy inducing activity as compared to Addavax,"[2]; Experimental Example 4: conclusion from IgE after secondary immunization, compound dissolved in saline",may have a lower allergy inducing activity
"CCCCCCCCCCCCCCCC(=O)N[C@@H](CCCCN)C(=O)NCCCCCCCCCCCC.Cl [SZ153, N-[(1S)-5-amino-1-(dodecylcarbamoyl)pentyl]hexadecanamide hydrochloride]",Effective Index,[1]; [3],> 1.0
